One assay relates to SK-BR-3. The experiment in a line: Antiproliferative activity against BRCA-proficient human SKBR3 cells after 48 hrs by MTT assay. To be noted: SK-BR-3, 48 h. The class given is functional, cell-based. In general terms: Tetrazolium assays rely on reduction of a dye to a coloured formazan, in cell work by metabolically active cells.
The test system of assay [1] is MCF7. The experiment in a line: Antiproliferative activity against BRCA-proficient human MCF7 cells after 48 hrs by MTT assay. The format is functional, cell-based. Conditions: MCF7, 48 h.
Assay [2] deals with HCC1937. The experiment in a line: Antiproliferative activity against BRCA1-deficient human HCC1937 cells after 48 hrs by MTT assay. The class given is functional, cell-based. Conditions: HCC1937, 48 h.
For another assay, the system named is CAPAN-1. The experiment in a line: Antiproliferative activity against BRCA2-deficient human Capan1 cells after 48 hrs by MTT assay. The format is functional, cell-based. To be noted: CAPAN-1, 48 h.
In a further assay the test system is MDA-MB-231. The experiment in a line: Antiproliferative activity against BRCA-proficient human MDA-MB-231 cells after 48 hrs by MTT assay. To be noted: MDA-MB-231, 48 h. The format is functional, cell-based.
For a further assay, the system named is MX1. The experiment in a line: Antiproliferative activity against BRCA1-deficient human MX1 cells after 48 hrs by MTT assay. The format is functional, cell-based. To be noted: MX1, 48 h.
The test system of assay [3] is MCF7. The experiment in a line: Inhibition of PARP in human MCF7 cells assessed as down regulation of PAR at 1 to 100 uM in presence of adriamycin by western blotting analysis. The class given is cell-based.
In assay [4] the target is T1, Heat shock protein HSP90 (Homo sapiens, UniProt P07900+P08238). The experiment in a line: Binding affinity to HSP90 (unknown origin) by fluorescence quenching method. The format is protein assay.
Assay [5] has as its target T1, Heat shock protein HSP90.
Description: Binding affinity to HSP90 (unknown origin) assessed as Stern-Volmer quenching constant by Stern-Volmer plot analysis
In assay [6] the test system is HCC1937. The experiment in a line: Potency index, ratio of compound IC50 to Olaparib IC50 for antiproliferative activity against human HCC1937 cells. The class given is functional.
The target in assay [7] is T1, Heat shock protein HSP90. The source holds these as a separate data set.
Description: Binding affinity to HSP90 (unknown origin) assessed as quenching constant by Stern-Volmer plot analysis
In assay [8] the target is T1, Heat shock protein HSP90. This is another data set of the same source.
Description: Binding affinity to HSP90 (unknown origin) by Line weaver-Burk plot analysis
The test system of assay [9] is MCF7. The experiment in a line: Potency index, ratio of compound IC50 to Olaparib IC50 for antiproliferative activity against human MCF7 cells. The format is functional.
Assay [10] addresses T1, Heat shock protein HSP90. The experiment in a line: Inhibition of HSP90 in human MDA-MB-231 cells assessed as down regulation of BRCA1 protein expression at 1 to 100 uM in presence of adriamycin by western blotting analysis. The class given is cell-based.
The target of assay [11] is T1, Heat shock protein HSP90. The experiment in a line: Inhibition of HSP90 (unknown origin) by fluorescence quenching method. The class given is protein assay.

SMILES strings stand for the structures. The source made the active and inactive calls. The calls are words filed in the database; no cut-off is given here.

As to `O=C1CCN(C(=O)c2cc(Cc3n[nH]c(=O)c4ccccc34)ccc2F)CC1`, the half-inhibitory concentration (IC50) with SK-BR-3, in the assay on MCF7 [1], in the assay on HCC1937 [2], with CAPAN-1, in the assay with MDA-MB-231 and in the assay on MX1 was > 200 µM throughout.
Consider `O=C1/C(=C/c2cccnc2)CN(C(=O)c2cc(Cc3n[nH]c(=O)c4ccccc34)ccc2F)C/C1=C\c1cccnc1`, for which the inhibition entry in the assay on MCF7 [3] was “Active”. The Kd (commonly a measure of binding affinity in units of concentration) at Heat shock protein HSP90 [4] is 28.257 µM. The KSV at Heat shock protein HSP90 [5] was 3.58 ×10⁴ L/mol. Further, in the assay on HCC1937 [6], the “Ratio IC50” value is recorded as 40. The 50% inhibitory concentration (IC50) (in general, the concentration that inhibits the measured activity by half) in the assay on SK-BR-3 was 15.9 µM; in the assay with MCF7 [1], > 200 µM; in the assay with HCC1937 [2], 5.3 µM; in the assay on CAPAN-1, 82.8 µM; with MDA-MB-231, 7.6 µM; in the assay on MX1, 2 µM. This compound also displayed a Kq at Heat shock protein HSP90 [7] of 4.43 ×10¹² L/mol/s. This compound returned a Ka on Heat shock protein HSP90 [8] of 4.89 ×10⁵ L/mol.
`O=C1/C(=C/c2cccc(F)c2)CN(C(=O)c2cc(Cc3n[nH]c(=O)c4ccccc34)ccc2F)C/C1=C\c1cccc(F)c1`: the IC50 with SK-BR-3 is > 200 µM; with MCF7 [1], 1.46 µM; with HCC1937 [2], 10.6 µM; with CAPAN-1 it was 1.68 µM; with MDA-MB-231, 5.17 µM; with MX1, 2.39 µM.
In the case of `O=C(c1cc(Cc2n[nH]c(=O)c3ccccc23)ccc1F)N1CCN(C(=O)C2CC2)CC1` [OLAPARIB], the IC50 in the assay with SK-BR-3 was 232 µM; in the assay on MCF7 [1] it was > 200 µM; in the assay on HCC1937 [2], > 200 µM; in the assay on CAPAN-1, 83.1 µM; with MDA-MB-231 it was > 200 µM; in the assay on MX1, 35.8 µM.
With `COc1cc(/C=C2\CN(C(=O)c3cc(Cc4n[nH]c(=O)c5ccccc45)ccc3F)C/C(=C\c3cc(OC)c(OC)c(OC)c3)C2=O)cc(OC)c1OC`, the half-inhibitory concentration (IC50) with SK-BR-3 was > 200 µM; in the assay with MCF7 [1] it was > 200 µM; in the assay on HCC1937 [2] it was 65.3 µM; in the assay on CAPAN-1, 118 µM; in the assay on MDA-MB-231, > 200 µM; with MX1, 34.6 µM.
For the compound `O=C1/C(=C/c2ccc(Cl)cc2)CN(C(=O)c2cc(Cc3n[nH]c(=O)c4ccccc34)ccc2F)C/C1=C\c1ccc(Cl)cc1`, the IC50 is > 200 µM in the assay on SK-BR-3; 1.21 µM in the assay on MCF7 [1]; 3.84 µM in the assay on HCC1937 [2]; 1.78 µM in the assay with CAPAN-1; 8 µM with MDA-MB-231; 4.23 µM in the assay with MX1.
Take `O=C1/C(=C/c2ccc(F)cc2)CN(C(=O)c2cc(Cc3n[nH]c(=O)c4ccccc34)ccc2F)C/C1=C\c1ccc(F)cc1`: the IC50 with SK-BR-3 was > 200 µM; with MCF7 [1], 173 µM; in the assay on HCC1937 [2], 36.1 µM; in the assay on CAPAN-1, > 200 µM; with MDA-MB-231, > 200 µM; with MX1, > 200 µM.
With `O=C1/C(=C/c2ccccn2)CN(C(=O)c2cc(Cc3n[nH]c(=O)c4ccccc34)ccc2F)C/C1=C\c1ccccn1`, the inhibition result in the assay with MCF7 [3] was “Active”. Also, the Kd at Heat shock protein HSP90 [4] is 29.569 µM. At Heat shock protein HSP90 [5], this compound gave a KSV of 3.48 ×10⁴ L/mol. In addition, the IC50 in the assay on SK-BR-3 came out at 2.83 µM; in the assay on MCF7 [1], 1.47 µM; with HCC1937 [2], 2.88 µM; in the assay on CAPAN-1, 37.3 µM; with MDA-MB-231, 0.75 µM; in the assay with MX1 it was 0.1 µM. Moreover, in the assay on MCF7 [9], the “Ratio IC50” value turned out to be 200. The compound further had a Kq at Heat shock protein HSP90 [7] of 4.32 ×10¹² L/mol/s. Also, the Ka on Heat shock protein HSP90 [8] turned out to be 4.88 ×10⁵ L/mol.
In the case of `O=C1/C(=C/c2ccc3c(c2)OCO3)CN(C(=O)c2cc(Cc3n[nH]c(=O)c4ccccc34)ccc2F)C/C1=C\c1ccc2c(c1)OCO2`, the IC50 in the assay on SK-BR-3 is > 200 µM; in the assay with MCF7 [1], 25.8 µM; in the assay with HCC1937 [2], 44.7 µM; in the assay with CAPAN-1, 32 µM; in the assay on MDA-MB-231 it was 21.1 µM; in the assay with MX1 it was 13.9 µM.
As to `O=C1/C(=C/c2ccccc2O)CN(C(=O)c2cc(Cc3n[nH]c(=O)c4ccccc34)ccc2F)C/C1=C\c1ccccc1O`, the IC50 in the assay on SK-BR-3 is > 200 µM; in the assay with MCF7 [1] it was > 200 µM; in the assay with HCC1937 [2] it was > 200 µM; in the assay on CAPAN-1, > 200 µM; in the assay with MDA-MB-231, > 200 µM; with MX1, 29.2 µM.
For the compound `O=C1/C(=C/c2ccncc2)CN(C(=O)c2cc(Cc3n[nH]c(=O)c4ccccc34)ccc2F)C/C1=C\c1ccncc1`, the inhibition entry on Heat shock protein HSP90 [10] and in the assay on MCF7 [3] was “Active” in each case. The dissociation constant (Kd) on Heat shock protein HSP90 [4] stood at 39.975 µM. For the same compound, the 50% inhibitory concentration (IC50) with SK-BR-3 is 2.53 µM; in the assay on MCF7 [1], 0.97 µM; with HCC1937 [2], 2.72 µM; against Heat shock protein HSP90 [11], 0.97 µM; in the assay with CAPAN-1 it was 0.202 µM; in the assay on MDA-MB-231 it was 4.38 µM. Further, the IC50 in the assay with MX1 was found to be 0.1 µM. Also, the “Ratio IC50” value with MCF7 [9] is given as 200.
On to `O=C1/C(=C/c2ccccc2F)CN(C(=O)c2cc(Cc3n[nH]c(=O)c4ccccc34)ccc2F)C/C1=C\c1ccccc1F`, for which the IC50 in the assay with SK-BR-3 was > 200 µM; with MCF7 [1], 2.05 µM; with HCC1937 [2], 16.1 µM; in the assay with CAPAN-1, 2.02 µM; in the assay with MDA-MB-231, 7.63 µM; in the assay on MX1 it was 3.62 µM.

The record behind these values is ChEMBL document CHEMBL4627353, “Synthesis of novel dual target inhibitors of PARP and HSP90 and their antitumor activities” (Bioorg Med Chem, 2020).
